Consider two molecules from patent US8039617B2, “Method for producing alpha form crystals of sapropterin hydrochloride” (Shiratori Pharmaceutical Co., Ltd., priority 2005, dated 2011).

Counter-ions that a name gives are not always drawn.

Series [1] is described as follows: moisture absorption during storage. In kind it is physicochemical. Particulars: for color change due to moisture absorption: hydrochloride. Here is the method: With regard to moisture absorption, α form crystal undergoes increase in weight by moisture absorption of 0.85 to 2% during storage for 14 days under the conditions of 25° C. and at relative humidity of 20 to 75%. […] On the other hand, weight of the β form crystal gradually increases under the conditions of 25° C. and a relative humidity of 60%, and weight increase is 3.5% at 18 hours and the increase continues to the maximum of 3.9%. From this, α form crystal is more moisture-stable than β form. […] Accordingly, α form crystal is suitable for storage.

Series [2] is classed as physicochemical. How it is done:
Furthermore, in differential thermal analysis, α form crystal has only one endothermic peak near the 250° C. as shown in FIG. 5 while β form crystal has two endothermic peaks near 180° C. and near 230° C. as shown in FIG. 6.

Turning to `C[C@H](O)[C@H](O)[C@H]1CNc2nc(N)[nH]c(=O)c2N1` [α form crystal, sapropterin hydrochloride], the “course of weight increase over storage” value in series [1] (25° C., relative humidity of 20 to 75%, day 1 to day 14) is reported as “stable from day 1 to day 14”. For the same molecule, in series [1], the “color change due to moisture absorption” value is listed as “does not change its color”. The “endothermic peak in differential thermal analysis (thermal stability)” value in series [2] is around 250 °C.

Regarding `C[C@H](O)[C@H](O)[C@H]1CNc2nc(N)[nH]c(=O)c2N1` [β form crystal, sapropterin hydrochloride], the “weight increase by moisture absorption” value in series [1] (25° C., relative humidity of 60%, at 18 hours) amounted to 3.5%. Besides, the “maximum weight increase by moisture absorption” value in series [1] (25° C., relative humidity of 60%, maximum) is reported as 3.9%. For the same molecule, in series [1], the “color change due to moisture absorption” value is listed as “changes the color from white to pale yellow”.
